Results published in patent publication US9725720B2, “Low molecular weight cationic lipids for oligonucleotide delivery” (SIRNA THERAPEUTICS, INC., priority 2010, dated 2017).

How the values were obtained:
[1] = Determination of cationic lipid levels in rat liver (LC/MS-MS); format: in vivo; settings: rats dosed with RDV containing the compound; compared with RDV containing DLinKC2DMA (Compound 20) or MC3 (Compound 21); FIG. 3
Protocol: Liver tissue was weighed into 20-ml vials and homogenized in 9 v/w of water using a GenoGrinder 2000 (OPS Diagnostics, 1600 strokes/min, 5 min). A 50 μL aliquot, of each tissue homogenate was mixed with 300 μL of extraction/protein precipitating solvent (50/50 acetonitrile/methanol containing 500 nM internal standard) and the plate was centrifuged to sediment precipitated protein. A volume of 200 μL of each supernatant was then transferred to separate wells of a 96-well plate and 10 μl samples were directly analyzed by LC/MS-MS.
Standards were prepared by spiking known amounts of a methanol stock solution of compound into untreated rat liver homogenate (9 vol water/weight liver). Aliquots (50 μL) each standard/liver homogenate was mixed with 300 μL of extraction/protein precipitating solvent (50/50 acetonitrile/methanol containing 500 nM internal standard) and the plate was centrifuged to sediment precipitated protein. A volume of 200 μL of each supernatant was transferred to separate wells of a 96-well plate and 10 μl of each standard was directly analyzed by LC/MS-MS.
Absolute quantification versus standards prepared and extracted from liver homogenate was performed using an Aria LX-2 HPLC system (Thermo Scientific) coupled to an API 4000 triple quadrupole mass spectrometer (Applied Biosystems). […]

[2] = tested on: mRNA transcript for the firefly (Photinus pyralis) luciferase gene; assay: Mouse in vivo evaluation of efficacy (luciferase siRNA LNP, LSL-Luc transgenic mice, IVIS imaging); settings: RDV containing the compound + Luc siRNA, tail vein, 0.1 to 0.5 mg/kg siRNA, 48 hours post dose; compared with RDV containing octyl-CLinDMA (OCD); FIG. 1
Protocol: LNPs utilizing Compounds 1-12, in the nominal compositions described immediately above, were evaluated for in vivo efficacy. The siRNA targets the mRNA transcript for the firefly (Photinus pyralis) luciferase gene (Accession #M15077). […] The in vivo luciferase model employs a transgenic mouse in which the firefly luciferase coding sequence is present in all cells. ROSA26-LoxP-Stop-LoxP-Luc (LSL-Luc) transgenic mice licensed from the Dana Farber Cancer Institute are Induced to express the Luciferase gene by first removing the LSL sequence with a recombinant Ad-Cre virus (Vector Biolabs). Due to the organotropic nature of the virus, expression is limited to the liver when delivered via tail vein injection. Luciferase expression levels in liver are quantitated by measuring light output, using an IVIS imager (Xenogen) following administration of the luciferin substrate (Caliper Life Sciences). Pre-dose luminescence levels are measured prior to administration of the RDVs. Luciferin in PBS (15 mg/mL) is intraperitoneally (IP) injected in a volume of 150 μL. After a four minute incubation period mice are anesthetized with isoflurane and placed in the IVIS imager. The RDVs (containing siRNA) in PBS vehicle were tail vein injected n a volume of 0.2 mL. […] In vivo efficacy results are expressed as % inhibition of luminescence relative to pre-dose luminescence levels. […]

[3] = Rat in vivo toxicity: survival after LNP dosing; settings: for rats that failed to survive 48 hours: 3 mg/kg

Structure (SMILES) | cationic lipid liver levels [1] | in vivo efficacy (% inhibition of luminescence relative to pre-dose luminescence levels) [2] | rats that survived at 48 hours post dose ([3]; female, Sprague-Dawley (Crl:CD(SD)), rat, in vivo, 48 h) | rats that failed to survive 48 hours [3]
CCCCC/C=C\C/C=C\CCCCCCCCOC[C@H](CCCCCCCCC)N(C)C [Compound 1, (2S)—N,N-dimethyl-1-[(9Z,12Z)-octadeca-9,12-dien-1-yloxy]undecan-2-amine] | lower | Greater efficacy | 1 out of 4 | –
CCCCC/C=C\C/C=C\CCCCCCCCC(CCCCCCCC/C=C\C/C=C\CCCCC)OC(=O)CCCN(C)C [Compound 21, MC3] | – | – | – | 2 out of 4
CCCCC/C=C\C/C=C\CCCCCCCCC1(CCCCCCCC/C=C\C/C=C\CCCCC)OCC(CCN(C)C)O1 (centres unmarked) [Compound 20, DLinKC2DMA] | – | – | – | 3 out of 4
